Legend:
Leishmania major = assay: Antileishmanial activity against Leishmania major promastigotes after 72 hrs by Neubauer chamber based cell counting method; format: functional, organism-based
[1] = Cytotoxicity against […] 3T3 cells assessed as inhibition of cell viability at 50 uM after 48 hrs by MTT assay; format: cell-based; conditions: read-out: INH
[2] = Cytotoxicity against […] 3T3 cells after 48 hrs by MTT assay; format: cell-based

SMILES | IC50 (Leishmania major) | other results
O=C(O)CN1CN(CCO)CSC1=S | 39.4 µM | –
CC(C)N1CSC(=S)N(C(C)c2ccccc2)C1 (stereo not given) | 21.4 µM | –
CCN1CSC(=S)N(CC)C1 | 38.4 µM | –
CC(C)N1CN(CC(=O)O)CSC1=S | 137 µM | –
CCCCN1CN(CC(=O)OCC)CSC1=S | 36.5 µM | –
CCCN1CSC(=S)N(CC(=O)O)C1 | 69.6 µM | –
CCN1CN(CC(=O)O)CSC1=S | 33.1 µM | –
N=C(N)c1ccc(OCCCCCOc2ccc(C(=N)N)cc2)cc1 [PENTAMIDINE] | 15 µM | –
CCCCN1CSC(=S)N(CC(=O)O)C1 | 36.6 µM | –
CCN1CSC(=S)N(C(C)c2ccccc2)C1 (stereo not given) | 46.2 µM | –
C[C@@H]1C[C@@H]([C@H](O)CC2CC(=O)NC(=O)C2)C(=O)[C@@H](C)C1 [CYCLOHEXIMIDE] | – | cytotoxicity at 48 h, 50 µM [1]: 66%; IC50 ([2]; NIH3T3, 48 h, read-out: IC50): 0.61 µM
CCCN1CN(CC(=O)O)CSC1=S | 39.3 µM | cytotoxicity at 48 h, 50 µM [1]: 56.6%; IC50 ([2]; NIH3T3, 48 h, read-out: IC50): 38.1 µM
CCCN1CN(CC(=O)OCC)CSC1=S | 107 µM | –
CCN1CSC(=S)N(CC(=O)O)C1 | 45.8 µM | –
CCCN1CN(CC(=O)OCc2ccccc2)CSC1=S | 93.1 µM | –
CC(c1ccccc1)N1CN(CCO)CSC1=S (stereo not given) | 32.2 µM | –
CCCCN1CSC(=S)N(C(C)c2ccccc2)C1 (stereo not given) | 21.4 µM | –
CCCCN1CN(CC(=O)O)CSC1=S | 24.6 µM | –
C[C@@H]1[C@H](O)[C@@H](C)/C=C/C=C/C=C/C=C/C=C/C=C/C=C/[C@H](O[C@@H]2O[C@H](C)[C@@H](O)[C@H](N)[C@@H]2O)C[C@@H]2O[C@](O)(C[C@@H](O)C[C@@H](O)[C@H](O)CC[C@@H](O)C[C@@H](O)CC(=O)O[C@H]1C)C[C@H](O)[C@H]2C(=O)O [AMPHOTERICIN B] | 0.31 µM | –
CCCN1CSC(=S)N(C(C)c2ccccc2)C1 (stereo not given) | 24.2 µM | –
CC(c1ccccc1)N1CN(CC(=O)O)CSC1=S (stereo not given) | 30.7 µM | –
COc1ccc(CN2CN(CC(=O)O)CSC2=S)cc1OC | 15.5 µM | cytotoxicity at 48 h, 50 µM [1]: 86.8%; IC50 ([2]; NIH3T3, 48 h, read-out: IC50): 22.7 µM
CCCN1CN(CC(=O)OC)CSC1=S | 203 µM | cytotoxicity at 48 h, 50 µM [1]: 36.9%; IC50 [2]: Not Active

Reference: ChEMBL document CHEMBL4265892, “New series of 3,5-disubstituted tetrahydro-2H-1,3,5-thiadiazine thione (THTT) derivatives: Synthesis and potent antileishmanial activity” (Bioorg Med Chem Lett, 2018)
